Experimental data as given in patent US9024017B2, “Octahydro-cyclopentapyrrolyl antagonists of CCR2” (Janssen Pharmaceutica NV, priority 2012, dated 2015).

Target: T1, CCR2 (Homo sapiens, UniProt P41597)
T1 construct: host or cells: THP-1 (human monocytic cell line)
Experiment: MCP-1 Receptor Binding Assay in THP-1 Cells
Settings: read-out: MCP1B_v3 IC50
Summary of the method: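 Human monocytic THP-1 cells incubated 2 h at 30 °C with 0.5 nM 125I-MCP-1 and varying concentrations of test compound or unlabelled MCP-1. Cells filter-harvested and counted by scintillation; blank subtracted, compared with vehicle; nonspecific binding with 1 μM cold MCP-1.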

T1 sequence (P41597 whole entry): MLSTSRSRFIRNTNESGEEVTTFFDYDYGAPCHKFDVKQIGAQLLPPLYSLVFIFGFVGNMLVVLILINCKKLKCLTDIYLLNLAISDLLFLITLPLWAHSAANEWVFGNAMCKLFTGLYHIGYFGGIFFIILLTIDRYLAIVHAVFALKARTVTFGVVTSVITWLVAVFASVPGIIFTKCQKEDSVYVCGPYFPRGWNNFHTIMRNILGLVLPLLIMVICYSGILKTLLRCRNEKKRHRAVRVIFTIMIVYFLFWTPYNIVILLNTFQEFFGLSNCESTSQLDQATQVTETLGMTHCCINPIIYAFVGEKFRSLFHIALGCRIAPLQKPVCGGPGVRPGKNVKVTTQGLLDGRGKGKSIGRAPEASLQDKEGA

Row | Structure (SMILES) | IC50
1 | COC1COCCC1N(C(=S)NCC(C)C)[C@@H]1C[C@H]2CN(C(=S)NCC(C)C)C[C@@]2(C(=O)N2CCc3ncc(C(F)(F)F)cc3C2)C1 (relative stereo) [Example 30, (3aR,5R,6aR)-N-Isobutyl-5-((3S*,4S*)-3-isobutyl-1-(3-methoxytetrahydro-2H-pyran-4-yl)thioureido)-3a-(3-(trifluoromethyl)-5,6,7,8-tetrahydro-1,6-naphthyridine-6-carbonyl)hexahydrocyclopenta[c]pyrrole-2(1H)-carbothioamide] | 90 nM
2 | COC1COCCC1N[C@@H]1C[C@H]2CN(C(=O)OCCNC(C)=O)C[C@@]2(C(=O)N2CCc3ccc(C(F)(F)F)cc3C2)C1 (relative stereo) [Example 55, (3aR,5R,6aR)-2-Acetamidoethyl 5-(((3S*,4S*)-3-methoxytetrahydro-2H-pyran-4-yl)amino)-3a-(7-(trifluoromethyl)-1,2,3,4-tetrahydroisoquinoline-2-carbonyl)hexahydrocyclopenta[c]pyrrole-2(1H)-carboxylate] | 10 nM
3 | COC1COCCC1N[C@@H]1C[C@H]2CN(CC(=O)N(C)C)C[C@@]2(C(=O)N2CCc3ncc(C(F)(F)F)cc3C2)C1 (relative stereo) [Example 106, 2-((3aR,5R,6aR)-5-(((3S*,4S*)-3-Methoxytetrahydro-2H-pyran-4-yl)amino)-3a-(3-(trifluoromethyl)-5,6,7,8-tetrahydro-1,6-naphthyridine-6-carbonyl)hexahydrocyclopenta[c]pyrrol-2(1H)-yl)-N,N-dimethylacetamide] | 2800 nM
4 | COC1COCCC1N[C@@H]1C[C@H]2CN(S(=O)(=O)NCc3ccccc3)C[C@@]2(C(=O)N2CCc3ncc(C(F)(F)F)cc3C2)C1 (relative stereo) [Example 33, (3aR,5R,6aR)-N-Benzyl-5-(((3S*,4S*)-3-methoxytetrahydro-2H-pyran-4-yl)amino)-3a-(3-(trifluoromethyl)-5,6,7,8-tetrahydro-1,6-naphthyridine-6-carbonyl)hexahydrocyclopenta[c]pyrrole-2(1H)-sulfonamide] | 410 nM
5 | COC1COCCC1N[C@@H]1C[C@H]2CN(C(=O)c3ccno3)C[C@@]2(C(=O)N2CCc3ncc(C(F)(F)F)cc3C2)C1 (relative stereo) [Example 71, Isoxazol-5-yl((3aR,5R,6aR)-5-(((3S*,4S*)-3-methoxytetrahydro-2H-pyran-4-yl)amino)-3a-(3-(trifluoromethyl)-5,6,7,8-tetrahydro-1,6-naphthyridine-6-carbonyl)hexahydrocyclopenta-[c]pyrrol-2(1H)-yl)methanone] | 160 nM
6 | COC1COCCC1N[C@@H]1C[C@H]2CN(C(=S)NCC(C)C)C[C@@]2(C(=O)N2CCc3ncc(C(F)(F)F)cc3C2)C1 (relative stereo) [Example 29, (3aR,5R,6aR)-N-Isobutyl-5-(((3S*,4S*)-3-methoxytetrahydro-2H-pyran-4-yl)amino)-3a-(3-(trifluoromethyl)-5,6,7,8-tetrahydro-1,6-naphthyridine-6-carbonyl)hexahydrocyclopenta[c]pyrrole-2(1H)-carbothioamide] | 30 nM
7 | COC1COCCC1N[C@@H]1C[C@H]2CN(C(=O)n3ccnc3)C[C@@]2(C(=O)N2CCc3ncc(C(F)(F)F)cc3C2)C1 (relative stereo) [Example 23, ((3aR,5R,6aR)-2-(1H-Imidazole-1-carbonyl)-5-(((3S*,4S*)-3-methoxytetrahydro-2H-pyran-4-yl)amino)octahydrocyclopenta[c]pyrrol-3a-yl)(3-(trifluoromethyl)-7,8-dihydro-1,6-naphthyridin-6(5H)-yl)methanone] | 280 nM
8 | COC1COCCC1N[C@@H]1C[C@H]2CN(C(N)=O)C[C@@]2(C(=O)NCc2cc(C(F)(F)F)cc(C(F)(F)F)c2)C1 (relative stereo) [Example 12, (3aR,5R,6aR)-N^3a-(3,5-Bis(trifluoromethyl)benzyl)-5-(((3S*,4S*)-3-methoxytetrahydro-2H-pyran-4-yl)amino)hexahydrocyclopenta[c]pyrrole-2,3a(1H)-dicarboxamide] | 100 nM
